According to PubChem BioAssay (NCI):
“And” between values parts separate entries of the source, which are not always exact repeats. Equal entries are not always repeated.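 Compound exposure: 48 hours, 5 concentrations, 96-well plates. GI50 is the concentration that inhibits growth by half. Definition used: TGI = concentration required for complete inhibition of growth.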

Legend:
Test in all cases: NCI-60 cell line screen, 48 h
HOP-92 NSCLC = tested on: HOP-92 NSCLC
SK-MEL-28 melanoma = tested on: SK-MEL-28 melanoma
SNB-19 CNS = tested on: SNB-19 CNS
SF-268 CNS = tested on: SF-268 CNS
HCC-2998 colon = tested on: HCC-2998 colon
COLO 205 colon = tested on: COLO 205 colon
RXF-631 renal = tested on: RXF-631 renal
HOP-18 NSCLC = tested on: HOP-18 NSCLC
SNB-75 CNS = tested on: SNB-75 CNS
LXFL 529 NSCLC = tested on: LXFL 529 NSCLC
SK-MEL-5 melanoma = tested on: SK-MEL-5 melanoma
UACC-257 melanoma = tested on: UACC-257 melanoma
SW-620 colon = tested on: SW-620 colon
MALME-3M melanoma = tested on: MALME-3M melanoma
SNB-78 CNS = tested on: SNB-78 CNS
HT29 colon = tested on: HT29 colon
IGROV1 ovarian = tested on: IGROV1 ovarian
CCRF-CEM leukemia = tested on: CCRF-CEM leukemia
TK-10 renal = tested on: TK-10 renal
SK-MEL-2 melanoma = tested on: SK-MEL-2 melanoma
OVCAR-3 ovarian = tested on: OVCAR-3 ovarian
NCI-H226 lung = tested on: NCI-H226 lung
A498 renal = tested on: A498 renal
OVCAR-4 ovarian = tested on: OVCAR-4 ovarian
LOX IMVI melanoma = tested on: LOX IMVI melanoma
DLD-1 colon = tested on: DLD-1 colon
UO-31 renal = tested on: UO-31 renal
ACHN renal = tested on: ACHN renal
KM12 colon = tested on: KM12 colon
NCI-H460 lung = tested on: NCI-H460 lung
SF-539 CNS = tested on: SF-539 CNS
DMS 114 small cell lung = tested on: DMS 114 small cell lung
SF-295 CNS = tested on: SF-295 CNS
OVCAR-8 ovarian = tested on: OVCAR-8 ovarian
HCT-15 colon = tested on: HCT-15 colon
A549 NSCLC = tested on: A549 NSCLC
MOLT-4 leukemia = tested on: MOLT-4 leukemia
KM20L2 colon = tested on: KM20L2 colon
HL-60(TB) leukemia = tested on: HL-60(TB) leukemia
CAKI-1 renal = tested on: CAKI-1 renal
OVCAR-5 ovarian = tested on: OVCAR-5 ovarian
K-562 leukemia = tested on: K-562 leukemia
HOP-62 NSCLC = tested on: HOP-62 NSCLC
786-0 renal = tested on: 786-0 renal
NCI-H23 lung = tested on: NCI-H23 lung
HCT-116 colon = tested on: HCT-116 colon
SN12C renal = tested on: SN12C renal
EKVX NSCLC = tested on: EKVX NSCLC
M19-MEL melanoma = tested on: M19-MEL melanoma
M14 melanoma = tested on: M14 melanoma
RPMI-8226 leukemia = tested on: RPMI-8226 leukemia
SK-OV-3 ovarian = tested on: SK-OV-3 ovarian
UACC-62 melanoma = tested on: UACC-62 melanoma
DMS 273 small cell lung = tested on: DMS 273 small cell lung
MDA-MB-435 = tested on: MDA-MB-435
MDA-N = tested on: MDA-N
NCI-H522 lung = tested on: NCI-H522 lung
MDA-MB-231 breast = tested on: MDA-MB-231 breast
SR leukemia = tested on: SR leukemia
RXF 393 renal = tested on: RXF 393 renal
BT-549 breast = tested on: BT-549 breast
DU-145 prostate = tested on: DU-145 prostate
T-47D breast = tested on: T-47D breast
HS 578T breast = tested on: HS 578T breast
U251 CNS = tested on: U251 CNS
XF 498 CNS = tested on: XF 498 CNS

Compound: Cc1ccc(NC(=O)CC(=O)n2nc(-c3ccccc3)c(N=Nc3ccc(Cl)cc3)c2-c2ccccc2)cc1
- TGI (HOP-92 NSCLC): 89 µM
- TGI (SK-MEL-28 melanoma): > 100000 nM
- TGI (SNB-19 CNS): > 100000 nM
- TGI (SF-268 CNS): > 100 µM
- TGI (HCC-2998 colon): > 100000 nM
- TGI (COLO 205 colon): > 100 µM
- TGI (RXF-631 renal): > 100 µM
- TGI (HOP-18 NSCLC): > 100 µM
- TGI (SNB-75 CNS): 70.9 µM
- TGI (LXFL 529 NSCLC): > 100 µM
- TGI (SK-MEL-5 melanoma): > 100 µM
- TGI (UACC-257 melanoma): > 100 µM
- TGI (SW-620 colon): 31 µM
- TGI (MALME-3M melanoma): > 100000 nM
- TGI (SNB-78 CNS): > 100 µM
- TGI (HT29 colon): 40.4 µM
- TGI (IGROV1 ovarian): > 100000 nM
- TGI (CCRF-CEM leukemia): 54.3 µM
- TGI (TK-10 renal): 72 µM
- TGI (SK-MEL-2 melanoma): > 100 µM
- TGI (OVCAR-3 ovarian): > 100 µM
- TGI (NCI-H226 lung): > 100000 nM
- TGI (A498 renal): > 100000 nM
- TGI (OVCAR-4 ovarian): > 100 µM
- TGI (LOX IMVI melanoma): 29.9 µM
- TGI (DLD-1 colon): 54.4 µM
- TGI (UO-31 renal): > 100 µM
- TGI (ACHN renal): > 100 µM
- TGI (KM12 colon): > 100 µM
- TGI (NCI-H460 lung): > 100 µM
- TGI (SF-539 CNS): 85.6 µM
- TGI (DMS 114 small cell lung): > 100 µM
- TGI (SF-295 CNS): > 100 µM
- TGI (OVCAR-8 ovarian): 60.6 µM
- TGI (HCT-15 colon): > 100 µM
- TGI (A549 NSCLC): 64400 nM
- TGI (MOLT-4 leukemia): > 100 µM
- TGI (KM20L2 colon): > 100 µM
- TGI (HL-60(TB) leukemia): 17.7 µM
- TGI (CAKI-1 renal): > 100 µM
- TGI (OVCAR-5 ovarian): > 100000 nM
- TGI (K-562 leukemia): 47.1 µM
- TGI (HOP-62 NSCLC): > 100000 nM
- TGI (786-0 renal): 45.2 µM
- TGI (NCI-H23 lung): > 100 µM
- TGI (HCT-116 colon): 33.8 µM
- TGI (SN12C renal): > 100 µM
- TGI (EKVX NSCLC): > 100000 nM
- TGI (M19-MEL melanoma): 60.4 µM
- TGI (M14 melanoma): > 100 µM
- TGI (RPMI-8226 leukemia): 47.8 µM
- TGI (SK-OV-3 ovarian): > 100000 nM
- TGI (UACC-62 melanoma): > 100 µM
- TGI (DMS 273 small cell lung): > 100 µM

Compound: Cc1cc2c(c3oc(C(O)(CO)C4CO4)cc(=O)c13)C(=O)c1c(O)cccc1C2=O (centres undefined)
- TGI (HOP-92 NSCLC): 0.000983 µM
- GI50 (SK-MEL-28 melanoma): 3.75 nM
- TGI (SK-MEL-28 melanoma): 9.5 nM and 8.24 nM and 38.2 nM
- GI50 (SNB-19 CNS): 0.231 nM
- TGI (SNB-19 CNS): 4.42 nM and 4.94 nM
- GI50 (HCC-2998 colon): 0.169 nM
- TGI (HCC-2998 colon): 7.27 nM and 3.65 nM and 11.2 nM
- GI50 (COLO 205 colon): 0.1 nM
- TGI (COLO 205 colon): 0.00115 µM
- TGI (RXF-631 renal): > 100 µM
- TGI (HOP-18 NSCLC): 0.0358 µM
- TGI (SNB-75 CNS): 0.00395 µM and 0.000596 µM
- TGI (UACC-257 melanoma): 0.0404 µM
- TGI (MALME-3M melanoma): 5.27 nM and 2.31 nM and 15.2 nM
- TGI (SNB-78 CNS): > 100 µM
- TGI (MDA-MB-435): 5.2 nM
- GI50 (MDA-N): 3.75 nM
- TGI (MDA-N): 4.43 nM and 5.15 nM
- TGI (IGROV1 ovarian): 1.9 nM and 2.94 nM
- TGI (CCRF-CEM leukemia): 0.000111 µM
- TGI (NCI-H522 lung): 3.23 nM
- TGI (MDA-MB-231 breast): 8.43 nM and 4.11 nM
- TGI (SK-MEL-2 melanoma): 0.00415 µM
- TGI (NCI-H226 lung): 2.09 nM
- GI50 (A498 renal): 3.75 nM
- TGI (A498 renal): 4.03 nM
- TGI (SR leukemia): 2.27 nM
- TGI (RXF 393 renal): 0.00254 µM
- TGI (ACHN renal): 0.00524 µM
- TGI (NCI-H460 lung): 0.00012 µM
- TGI (BT-549 breast): 0.438 nM
- TGI (SF-539 CNS): 0.000212 µM
- TGI (SF-295 CNS): 0.00094 µM
- TGI (HCT-15 colon): 0.00152 µM
- TGI (A549 NSCLC): 13.9 nM and 21.3 nM and 60.6 nM
- GI50 (MOLT-4 leukemia): > 37.5 µM
- TGI (MOLT-4 leukemia): > 37.5 µM
- TGI (HL-60(TB) leukemia): 0.00397 µM
- TGI (CAKI-1 renal): 0.0036 µM
- TGI (OVCAR-5 ovarian): 7.91 nM and 3.28 nM and 4.1 nM
- TGI (HOP-62 NSCLC): 9.89 nM and 3.53 nM
- TGI (EKVX NSCLC): 17.1 nM and 37.8 nM
- TGI (DU-145 prostate): 2.49 nM and 1.08 nM
- GI50 (T-47D breast): 3.75 nM
- TGI (T-47D breast): 6.83 nM and 2.32 nM and 14.6 nM
- TGI (SK-OV-3 ovarian): 6.71 nM and 1.73 nM
- TGI (UACC-62 melanoma): 0.00293 µM
- GI50 (HS 578T breast): 0.702 nM
- TGI (HS 578T breast): 7.8 nM
- TGI (U251 CNS): 4.11 nM

Compound: CC1C=C(OC(=O)c2ccccc2)C(=O)C(n2cc(F)c(=O)n(C(=O)c3ccccc3)c2=O)O1 (centres undefined)
- TGI (HOP-92 NSCLC): > 100 µM
- TGI (SK-MEL-28 melanoma): > 100000 nM
- TGI (SNB-19 CNS): > 100000 nM
- TGI (COLO 205 colon): 62.1 µM
- TGI (RXF-631 renal): > 100 µM
- TGI (HOP-18 NSCLC): > 100 µM
- TGI (SNB-75 CNS): 91.9 µM
- TGI (SK-MEL-5 melanoma): > 100 µM
- TGI (UACC-257 melanoma): > 100 µM
- TGI (SW-620 colon): 96.6 µM
- TGI (MALME-3M melanoma): 95700 nM
- TGI (SNB-78 CNS): > 100 µM
- TGI (HT29 colon): > 100 µM
- TGI (IGROV1 ovarian): > 100000 nM
- TGI (CCRF-CEM leukemia): 45.2 µM
- TGI (XF 498 CNS): 73.3 µM
- TGI (TK-10 renal): > 100 µM
- TGI (SK-MEL-2 melanoma): > 100 µM
- TGI (OVCAR-3 ovarian): 56.4 µM
- TGI (OVCAR-4 ovarian): > 100 µM
- TGI (LOX IMVI melanoma): 55 µM
- TGI (RXF 393 renal): 81.7 µM
- TGI (DLD-1 colon): > 100 µM
- TGI (UO-31 renal): > 100 µM
- TGI (ACHN renal): > 100 µM
- TGI (NCI-H460 lung): > 100 µM
- TGI (SF-539 CNS): > 100 µM
- TGI (DMS 114 small cell lung): > 100 µM
- TGI (SF-295 CNS): > 100 µM
- TGI (OVCAR-8 ovarian): > 100 µM
- TGI (HCT-15 colon): > 100 µM
- TGI (A549 NSCLC): > 100000 nM
- TGI (MOLT-4 leukemia): 71.4 µM
- TGI (KM20L2 colon): 81.9 µM
- TGI (HL-60(TB) leukemia): 50.1 µM
- TGI (CAKI-1 renal): 81.4 µM
- TGI (K-562 leukemia): 55.1 µM
- TGI (HOP-62 NSCLC): > 100000 nM
- TGI (786-0 renal): > 100 µM
- TGI (NCI-H23 lung): > 100 µM
- TGI (HCT-116 colon): > 100 µM
- TGI (SN12C renal): > 100 µM
- TGI (EKVX NSCLC): > 100000 nM
- TGI (M19-MEL melanoma): > 100 µM
- TGI (M14 melanoma): > 100 µM
- TGI (RPMI-8226 leukemia): > 100 µM
- TGI (SK-OV-3 ovarian): > 100000 nM
- TGI (UACC-62 melanoma): 98.6 µM
- TGI (DMS 273 small cell lung): > 100 µM
- TGI (U251 CNS): > 100000 nM
